Results taken from the NIST ThermoML archive (doi:10.1021/je060441j).
± gives the expanded uncertainty stated by the source.

What was measured:
[1] = Liquid
[2] = xn = mol fraction of the nth substance listed; settings: 101 kPa, Liquid, x1 = 1

| mass density ([1]; 298.15 K, 101.33 kPa) | mass density ([1]; 288.15 K, 101 kPa) | mass density ([1]; 293.15 K, 101 kPa) | mass density ([1]; 298.15 K, 101 kPa) | mass density ([1]; 303.15 K, 101 kPa) | mass density ([1]; 308.15 K, 101 kPa) | mass density ([1]; 313.15 K, 101 kPa) | mass density ([2]; 288.15 K) | mass density ([2]; 293.15 K) | mass density ([2]; 298.15 K) | mass density ([2]; 303.15 K) | mass density ([2]; 308.15 K) | mass density ([2]; 313.15 K) | SMILES |
| --- | --- | --- | --- | --- | --- | --- | --- | --- | --- | --- | --- | --- | --- |
| 873.582 ± 0.16 kg/m3 |  |  |  |  |  |  |  |  |  |  |  |  | c1ccccc1 [benzene] |
|  | 796.093 ± 0.23 kg/m3 | 791.4 ± 0.23 kg/m3 | 786.694 ± 0.23 kg/m3 | 781.966 ± 0.24 kg/m3 | 777.213 ± 0.24 kg/m3 | 772.443 ± 0.24 kg/m3 |  |  |  |  |  |  | CO [methanol] |
|  |  |  |  |  |  |  | 796.093 ± 0.23 kg/m3 | 791.4 ± 0.23 kg/m3 | 786.694 ± 0.23 kg/m3 | 781.966 ± 0.24 kg/m3 | 777.213 ± 0.24 kg/m3 | 772.443 ± 0.24 kg/m3 | CO [methanol] + ClC(Cl)Cl |
|  | 1498.08 ± 0.47 kg/m3 | 1488.64 ± 0.46 kg/m3 | 1479.15 ± 0.45 kg/m3 | 1469.61 ± 0.45 kg/m3 | 1460.03 ± 0.44 kg/m3 | 1450.41 ± 0.43 kg/m3 |  |  |  |  |  |  | ClC(Cl)Cl [trichloromethane] |
